Assays:
endogenous microglia [1] = assay: Direct intracerebral injection of GFP bone marrow cells with or without PLX5622 pre-treatment; format: in vivo, mouse; settings: 21-day PLX5622 pre-treatment; 14 days post IC injection
Method: FIG. 1. Microglia replacement after bone marrow transplantation is a slow, inefficient and variable process. (A) Schematic overview of bone marrow transplantation (HSCT). Recipient mice were received intraperitoneal (IP) injection of busulfan for 5 days at 25 mg/kg/day (i.e. 125 mg/kg total dose) and then transplanted with GFP-expressing bone marrow cells via intravenous (IV) injection. Donor chimerism in peripheral blood (PB) and brain myeloid cells was analyzed at the indicated time points. (B and C) Donor chimerism in PB leukocytes (CD45+ cells) and brain myeloid cells (CD45+CD11b+ cells) was analyzed by flow cytometry at the indicated time point. […] GFP chimerism in PB leukocytes (B) (Mean±SEM, n=5-20/time point, ***p<0.001, ns: not significant, ANOVA). GFP chimerism in brain myeloid cells (C) (Mean±SEM, n=5/time point, *p<0.05, **p<0.01, ns: not significant, ANOVA). (D) Flow cytometry analysis of GFP+bone marrow cells 14 days after direct intracerebral (IC) injection with (bottom) and without (top) PLX5622 pre-treatment of recipient mice. […] (F) Quantification of transplanted GFP+bone marrow cells in coronal brain sections. […] Horizontal bars represent mean values (n=3/group, 3 brain slices/animal were quantified. **p<0.01, ***p<0.001, Student's t-test). […] (H) Microglia chimerism was analyzed by flow cytometry 14 days post IV injection. […]

endogenous microglia [2] = assay: Depletion of endogenous microglia by PLX5622 diet; format: in vivo, mouse; settings: PLX5622 diet for 21 days
Excerpt: FIG. 8. Circulation-derived myeloid cells adopt a ramified microglia-like morphology upon brain engraftment. (A and B) Flow cytometry gating for analysis of donor chimerism in PB leukocytes (CD45+) (A) and brain myeloid cells (CD45+CD11b+)(B). (C) Representative images of circulation-derived myeloid cells (CDMCs)([…]) and host microglia (Iba-1+GFP−) cells and DAPI in the cortex of recipient mice at the indicated time points. Scale bars:50 μm. (D) Representative images of Iba-1+ cells in the cortex of mice treated with control or PLX5622 diet for 21 days. The right panels in each group are enlarged images of the boxed areas in the left panels. Scale bars: […]. (E) Iba-1+ cell density in the indicated brain regions was analyzed by microscopy (Mean±SEM, n=3/group, 6 brain slices/animal were quantified. ***p<0.001, Student's t-test). […]
Immunofluorescence microscopy. […] Images were obtained using a Zeiss LSM710 confocal microscope or Zeiss AxioImager motorized widefield fluorescence microscope.
Image analysis. […] For morphological analyses, Iba1+ cells and GFP+ cells in the indicated brain regions were analyzed. The number of Iba1+ cells, and number of branch points were manually counted using ImageJ. […] The length of processes in Iba-1+ cells was analyzed semi-automatically using NeuronJ plugin. The ratio of cell body to total cell area was analyzed using FracLac plugin as described. […]

SMILES: COc1ncc(F)cc1CNc1ccc(Cc2c[nH]c3ncc(C)cc23)c(F)n1 [PLX5622]
- fate of bone marrow cells injected into the brain (endogenous microglia [1]): adopted microglia-like morphologies, expressed the microglial marker Iba-1, were more numerous, and dispersed wider into the brain parenchyma
- elimination of endogenous microglia (Iba-1+ cell density) (endogenous microglia [2]): efficient elimination of endogenous microglia throughout the brain
